Experimental data published in US8871812B2, “Therapeutic regimen comprising PEG-interferon, ribavirin and VX-950 for the treatment of hepatitis” (priority 2008, dated 2014).
Marks after values point to notes of the source that are not given here.

Columns and labels:
[1] = system: WT-HCV protease-SEAP; settings: SCID mice expressing WT-HCV protease-SEAP; see WO 2005/025517; cited from earlier work
[2] = system: genotype 1 hepatitis C; test: Phase 1b 14-day study of VX-950 alone or with peginterferon alfa-2a, followed by peginterferon alfa-2a/ribavirin: HCV RNA; format: in vivo, human
Text: This study was designed to provide information on the kinetics of HCV following treatment with VX-950 and peginterferon alfa-2a administered over 14 days.
This study randomized twenty treatment-naïve patients with chronic genotype 1 hepatitis C infection to three dosing arms (Table 6). At the completion of the 14-day study, 19 of 20 patients chose to begin peginterferon alfa-2a/ribavirin, starting within 5 days of completing the 14-day dosing period; as the other one declined to take the combination of Peg-IRN-2a and ribavirin. Clinic visits were conducted at the discretion of the investigators, after completion of the 1-week and 12-week study-mandated follow-up visits. Nineteen patients have been followed through 24 weeks after the completion of the study dosing. After discussion with the treating physicians, ten (4 in VX-950 and 6 in VX-950/peginterferon alfa-2a) patients stopped peginterferon alfa-2a/ribavirin treatment at 24 weeks.

[3] = male, human, in vivo
Experimental: VX-950 was examined in a randomized, double-blind, placebo-controlled single-dose escalation study. 25 healthy male volunteers were enrolled and each received multiple single doses of VX-950 (at least 7 days apart, 3 doses of VX-950 at increasing dose levels) and 1 dose of placebo.
A dose escalation scheme was used that combined dose doubling and modified Fibonacci to be aggressive in the lower dose range and conservative in the higher dose range.
A pharmacokinetics analysis was performed using the statistical moment approach.

[4] = human, in vivo
[5] = C208 Phase 2 study: pharmacokinetics of TVR in plasma; format: in vivo, human; settings: for Cmin, mean ± SD: Week 8
Experimental: Assessment of virologic breakthrough (defined as a >1-log 10 increase in HCV RNA from nadir, or HCV RNA>100 IU/mL in subjects whose HCV RNA had previously become undetectable [<10 IU/mL] at all assessment timepoints) was performed. Pharmacokinetics and viral dynamics were assessed by pre-defined serial measurements of plasma concentrations of TVR and HCV RNA, respectively, from baseline to Week 12. Pharmacokinetic analysis of TVR was performed using non-compartmental methods for data from full pharmacokinetic profiles. A viral dynamics model, which included fixed effects for treatment and random effects for clearance, drug effect, drop and death rate in infected cells with unstructured variance covariance matrix, was also constructed. Safety and tolerability were assessed by monitoring adverse events (AEs), laboratory abnormalities and cardiovascular parameters.

[6] = C208 Phase 2 study: safety, tolerability and discontinuations
[7] = system: HCV genotype 1; test: 14-day multiple-dose study in HCV genotype 1 subjects: HCV RNA (study VX04-950-101); format: in vivo, human
Experimental: Accordingly, applicants determined the changes in serum neopterin concentration as a marker of monocyte/macrophage activity during administration of an inhibitor of (HCV) NS3·4A protease. As described herein, VX-950 was administered for 14 days in a randomized, double blind, placebo controlled, multiple-dose study in 34 patients infected with HCV genotype 1. Patients received VX-950 450 mg q8h (n=10), 750 mg q8h (n=8), 1250 mg q12h (n=10), or placebo (n=6). Serum neopterin concentrations were measured by a quantitative competitive ELISA (ELItest® Neopterin, Brahms, Hennigsdorf, Germany) at pretreatment, at day 7 and 14, and at day 10 of follow-up. The lower limit of detection (LLD) was 2 nmol/I. HCV RNA was assessed at frequent intervals during the study by real-time PCR (COBAS TAQMAN™ HCV Test; linear dynamic range of 3.0 ×10^1 to 2.0 ×10^8 HCV RNA IU/ml; LLD of 10 HCV RNA IU/ml; Roche Diagnostics, Branchburg, N.J.).
All other 34 subjects completed the study.
The HCV positive subjects were tested post-treatment to monitor HCV RNA levels' return to baseline.

[8] = 1-week F/U, on-study, Peg-IFN-2a/RBV, N = 7 / 8 / 4 per group
[9] = TVR 750 mg q8h + Peg-IFN alfa-2a + RBV (n = 40)
[10] = TVR 750 mg q8h + Peg-IFN alfa-2b + RBV (n = 42)
[11] = TVR 1125 mg q12h + Peg-IFN alfa-2a + RBV (n = 40)
[12] = TVR 1125 mg q12h + Peg-IFN alfa-2b + RBV (n = 39)

In the case of CCC[C@H](NC(=O)[C@@H]1[C@H]2CCC[C@H]2CN1C(=O)[C@@H](NC(=O)[C@@H](NC(=O)c1cnccn1)C1CCCCC1)C(C)(C)C)C(=O)C(=O)NC1CC1 [VX-950], the “Effect on elevated ALT levels” value [1] is listed as “ameliorates elevated ALT levels”, the “HCV RNA below limit of detection (10 IU/mL) n” value [2, 8] is listed as 1 n and the “HCV RNA below limit of quantitation (30 IU/mL) n” value [2, 8] is listed as 3 n. The “HCV RNA below limit of quantitation (30 IU/mL) n” value ([2]; 12-week F/U, on-study, Peg-IFN-2a/RBV, N = 7 / 8 / 4 per group) was 6 n, the “Patients who achieved SVR” value ([2]; 14 days of VX-950 optionally with Peg-INF, followed by Peg-INF/ribavirin for additional 22 or 46 weeks) was 10 of 15 and the “Undetectable HCV RNA at 24-week off study peg-IFN-2a/RBV treatment N” value ([2]; N = 7 / 8 / 4 per group) was 7* N. For the same molecule, the “Patients with undetectable HCV RNA at week 24” value ([2]; all patients who received VX-950 (alone or with peginterferon)) was 15 patients, the Antiviral activity ([2]; as a single agent or in combination with peginterferon alfa-2a, 14 days) was “rapid and profound antiviral activity” and the “Patients who achieved SVR” value ([2]; at least 14 days of VX-950 (alone or with peginterferon), treated for 24 weeks in total) was 7 of 10. The “Patients who achieved SVR” value ([2]; at least 14 days of VX-950 (alone or with peginterferon), treated for 48 weeks in total) was 3 of 5, the “SVR in a patient receiving a 2 week treatment of VX-950” value ([2]; in vivo) was “SVR was achieved” and the “Undetectable HCV RNA at 12 weeks follow-up after stopping peg-IFN-2a/RBV” value ([2]; patients who stopped peg-IFN-2a/RBV at week 24) was 2 of 4. For the same molecule, the “VX-950 eliminated unchanged in the urine” value [3] was “Less than 2%”, the “overall proportion of TVR discontinuations for any reason” value ([4]; 4 weeks) was 12% and the “Treatment discontinuations (all drugs), Any reason” value ([4]; 12 weeks) was 24 (15) n (%). For the same molecule, the “Treatment discontinuations (all drugs), Due to AEs” value ([4]; 12 weeks) was 13 (8) n (%), the “Cmin, mean ± SD” value [5, 9] was 2624 ± 507 ng/mL and the “Cmin, mean ± SD” value [5, 10] was 2569 ± 453 ng/mL. For the same molecule, the “Cmin, mean ± SD” value [5, 11] was 2134 ± 620 ng/mL, the “Cmin, mean ± SD” value [5, 12] was 2321 ± 384 ng/mL and the “telaprevir Cmax” value ([5]; in vivo) was “higher”. For the same molecule, the “telaprevir Cmin” value ([5]; on average, q12h versus q8h dosing schedules) was “lower”, the “AE: Anemia” value [6, 9] was 18 (45) n (%) and the “AE: Asthenia” value [6, 9] was 11 (28) n (%). The “AE: Decreased appetite” value [6, 9] was 8 (20) n (%), the “AE: Diarrhea” value [6, 9] was 10 (25) n (%) and the “AE: Fatigue” value [6, 9] was 15 (38) n (%). The “AE: Headache” value [6, 9] was 13 (33) n (%), the “AE: Influenza-like illness” value [6, 9] was 15 (38) n (%) and the “AE: Nausea” value [6, 9] was 18 (45) n (%). The “AE: Pruritus” value [6, 9] was 16 (40) n (%), the “AE: Pyrexia” value [6, 9] was 8 (20) n (%) and the “AE: Rash” value [6, 9] was 26 (65) n (%). The “AE: Vomiting” value [6, 9] was 7 (18) n (%), the “AE: Anemia” value [6, 10] was 14 (33) n (%) and the “AE: Asthenia” value [6, 10] was 16 (38) n (%). For the same molecule, the “AE: Decreased appetite” value [6, 10] was 4 (10) n (%), the “AE: Diarrhea” value [6, 10] was 9 (21) n (%) and the “AE: Fatigue” value [6, 10] was 15 (36) n (%). For the same molecule, the “AE: Headache” value [6, 10] was 18 (43) n (%), the “AE: Influenza-like illness” value [6, 10] was 19 (45) n (%) and the “AE: Nausea” value [6, 10] was 14 (33) n (%). For the same molecule, the “AE: Pruritus” value [6, 10] was 21 (50) n (%), the “AE: Pyrexia” value [6, 10] was 14 (33) n (%) and the “AE: Rash” value [6, 10] was 15 (36) n (%). For the same molecule, the “AE: Vomiting” value [6, 10] was 5 (12) n (%), the “AE: Anemia” value [6, 11] was 14 (35) n (%) and the “AE: Asthenia” value [6, 11] was 7 (18) n (%). For the same molecule, the “AE: Decreased appetite” value [6, 11] was 6 (15) n (%), the “AE: Diarrhea” value [6, 11] was 12 (30) n (%) and the “AE: Fatigue” value [6, 11] was 14 (35) n (%). For the same molecule, the “AE: Headache” value [6, 11] was 13 (33) n (%), the “AE: Influenza-like illness” value [6, 11] was 11 (28) n (%) and the “AE: Nausea” value [6, 11] was 16 (40) n (%). The “AE: Pruritus” value [6, 11] was 19 (48) n (%), the “AE: Pyrexia” value [6, 11] was 8 (20) n (%) and the “AE: Rash” value [6, 11] was 16 (40) n (%). For the same molecule, the “AE: Vomiting” value [6, 11] was 7 (18) n (%), the “AE: Anemia” value [6, 12] was 19 (49) n (%) and the “AE: Asthenia” value [6, 12] was 14 (36) n (%). The “AE: Decreased appetite” value [6, 12] was 15 (39) n (%), the “AE: Diarrhea” value [6, 12] was 13 (33) n (%) and the “AE: Fatigue” value [6, 12] was 15 (39) n (%). The “AE: Headache” value [6, 12] was 16 (41) n (%), the “AE: Influenza-like illness” value [6, 12] was 20 (51) n (%) and the “AE: Nausea” value [6, 12] was 22 (56) n (%). For the same molecule, the “AE: Pruritus” value [6, 12] was 22 (56) n (%), the “AE: Pyrexia” value [6, 12] was 11 (28) n (%) and the “AE: Rash” value [6, 12] was 14 (36) n (%). For the same molecule, the “AE: Vomiting” value [6, 12] was 12 (31) n (%), the “electrocardiographic or vital signs parameters” value ([6]; all T/PR arms) was “No relevant changes” and the “Subjects with maximum change from baseline in HCV RNA >−1 to <0 log10 IU/mL” value (“Subjects with maximum change … to <0 log10 IU/mL” below) ([7]; 450 mg q8h, 14 days (n = 10)) was 0 n (%). The “Subjects with maximum change from baseline in HCV RNA >−2 to ≦−1 log10 IU/mL” value ([7]; 450 mg q8h, 14 days (n = 10)) was 0 n (%), the “Subjects with maximum change from baseline in HCV RNA >−3 to ≦−2 log10 IU/mL” value ([7]; 450 mg q8h, 14 days (n = 10)) was 1 (10.0) n (%) and the “Subjects with maximum change from baseline in HCV RNA >−4 to ≦−3 log10 IU/mL” value ([7]; 450 mg q8h, 14 days (n = 10)) was 7 (70.0) n (%). The “Subjects with maximum change from baseline in HCV RNA >−5 to ≦−4 log10 IU/mL” value ([7]; 450 mg q8h, 14 days (n = 10)) was 0 n (%), the “Subjects with maximum change from baseline in HCV RNA ≧−5 log10 IU/mL” value ([7]; 450 mg q8h, 14 days (n = 10)) was 2 (20.0) n (%) and the “Subjects with maximum change … to <0 log10 IU/mL” value ([7]; 750 mg q8h, 14 days (n = 8)) was 0 n (%). For the same molecule, the “Subjects with maximum change from baseline in HCV RNA >−2 to ≦−1 log10 IU/mL” value ([7]; 750 mg q8h, 14 days (n = 8)) was 0 n (%), the “Subjects with maximum change from baseline in HCV RNA >−3 to ≦−2 log10 IU/mL” value ([7]; 750 mg q8h, 14 days (n = 8)) was 0 n (%) and the “Subjects with maximum change from baseline in HCV RNA >−4 to ≦−3 log10 IU/mL” value ([7]; 750 mg q8h, 14 days (n = 8)) was 3 (37.5) n (%). For the same molecule, the “Subjects with maximum change from baseline in HCV RNA >−5 to ≦−4 log10 IU/mL” value ([7]; 750 mg q8h, 14 days (n = 8)) was 3 (37.5) n (%), the “Subjects with maximum change from baseline in HCV RNA ≧−5 log10 IU/mL” value ([7]; 750 mg q8h, 14 days (n = 8)) was 2 (25.0) n (%) and the “Subjects with maximum change … to <0 log10 IU/mL” value ([7]; 1250 mg q12h, 14 days (n = 10)) was 0 n (%). The “Subjects with maximum change from baseline in HCV RNA >−2 to ≦−1 log10 IU/mL” value ([7]; 1250 mg q12h, 14 days (n = 10)) was 0 n (%), the “Subjects with maximum change from baseline in HCV RNA >−3 to ≦−2 log10 IU/mL” value ([7]; 1250 mg q12h, 14 days (n = 10)) was 1 (10.0) n (%) and the “Subjects with maximum change from baseline in HCV RNA >−4 to ≦−3 log10 IU/mL” value ([7]; 1250 mg q12h, 14 days (n = 10)) was 9 (90.0) n (%). For the same molecule, the “Subjects with maximum change from baseline in HCV RNA >−5 to ≦−4 log10 IU/mL” value ([7]; 1250 mg q12h, 14 days (n = 10)) was 0 n (%), the “Subjects with maximum change from baseline in HCV RNA ≧−5 log10 IU/mL” value ([7]; 1250 mg q12h, 14 days (n = 10)) was 0 n (%) and the “Subjects with a 3 log10 reduction in HCV-RNA” value ([7]; within the first three days of treatment, of the 28 subjects receiving VX-950) was 26.
